Measured values: ChEMBL document CHEMBL1201862, “PubChem BioAssay data set” (2004)
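48-hour exposure; five concentrations; linearly interpolated endpoints. Here, GI50 denotes the concentration required for 50% inhibition of growth.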 Active and inactive are the calls of the source. Rule as the data show it: active = GI50 up to about 1.1 µM and inactive = higher.

How the values were obtained:
Test in all cases: growth of human tumour cells (NCI), 48 h
SN12C = test system: SN12C
KM12 = test system: KM12
DU-145 = test system: DU-145
A498 = test system: A498
A549 = test system: A549
HCT-116 = test system: HCT-116
U-251 = test system: U-251
RPMI-8226 = test system: RPMI-8226
HCC 2998 = test system: HCC 2998
K562 = test system: K562
ACHN = test system: ACHN
MDA-N = test system: MDA-N
786-0 = test system: 786-0
UO-31 = test system: UO-31
OVCAR-4 = test system: OVCAR-4
MOLT-4 = test system: MOLT-4
MDA-MB-435 = test system: MDA-MB-435
CCRF-CEM = test system: CCRF-CEM
OVCAR-3 = test system: OVCAR-3
COLO 205 = test system: COLO 205
SK-MEL-28 = test system: SK-MEL-28
SR = test system: SR
HOP-92 = test system: HOP-92
NCI-H226 = test system: NCI-H226
NCI-H23 = test system: NCI-H23
NCI/ADR-RES = test system: NCI/ADR-RES
TK-10 = test system: TK-10
IGROV-1 = test system: IGROV-1
MDA-MB-231 = test system: MDA-MB-231
NCI-H460 = test system: NCI-H460
OVCAR-5 = test system: OVCAR-5
LOX IMVI = test system: LOX IMVI
UACC-62 = test system: UACC-62
SF-295 = test system: SF-295
NCI-H522 = test system: NCI-H522
HT-29 = test system: HT-29
SK-MEL-2 = test system: SK-MEL-2
RXF 393 = test system: RXF 393
HOP-62 = test system: HOP-62
PC-3 = test system: PC-3
T47D = test system: T47D
MCF7 = test system: MCF7
HCT-15 = test system: HCT-15
M14 = test system: M14
EKVX = test system: EKVX
Malme-3M = test system: Malme-3M
SF-268 = test system: SF-268
SNB-19 = test system: SNB-19
SK-OV-3 = test system: SK-OV-3
SNB-75 = test system: SNB-75
SK-MEL-5 = test system: SK-MEL-5
SF-539 = test system: SF-539
UACC-257 = test system: UACC-257
CAKI-1 = test system: CAKI-1
Hs-578T = test system: Hs-578T
BT-549 = test system: BT-549
HL-60 = test system: HL-60
SW-620 = test system: SW-620
OVCAR-8 = test system: OVCAR-8

Measured: GI50

Nc1cccc2nsnc12
inactive: SN12C > 100 µM | KM12 20.7 µM | DU-145 > 100 µM | A498 > 100 µM | A549 > 100 µM | HCT-116 > 100 µM | U-251 > 100 µM | RPMI-8226 17.8 µM | HCC 2998 > 84.3 µM | K562 16.7 µM | ACHN > 95.7 µM | MDA-N 49.8 µM | 786-0 > 100 µM | UO-31 > 40.5 µM | OVCAR-4 > 100 µM | MOLT-4 12.9 µM | MDA-MB-435 31.6 µM | CCRF-CEM 11.9 µM | OVCAR-3 > 94.8 µM | COLO 205 29.3 µM | SK-MEL-28 > 100 µM | SR 4.2 µM | HOP-92 > 100 µM | NCI-H226 > 100 µM | NCI-H23 > 100 µM | NCI/ADR-RES > 100 µM | TK-10 > 100 µM | IGROV-1 > 100 µM | MDA-MB-231 > 100 µM | NCI-H460 > 84.1 µM | OVCAR-5 > 100 µM | LOX IMVI > 53.1 µM | UACC-62 48.6 µM | SF-295 > 88.7 µM | NCI-H522 9.1 µM | HT-29 > 100 µM | SK-MEL-2 > 100 µM | RXF 393 > 100 µM | HOP-62 > 100 µM | PC-3 > 100 µM | T47D 49.1 µM | MCF7 > 88.3 µM | M14 > 83.9 µM | EKVX > 91.8 µM | Malme-3M > 100 µM | SF-268 > 86.3 µM | SNB-19 > 100 µM | SK-OV-3 > 100 µM | SNB-75 53.8 µM | SK-MEL-5 36.3 µM | SF-539 > 100 µM | UACC-257 > 100 µM | CAKI-1 74.3 µM | Hs-578T > 100 µM | BT-549 > 100 µM | HL-60 3.31 µM | SW-620 > 100 µM | OVCAR-8 > 100 µM
> 76.7 µM: HCT-15

COc1ccc(N2C(=O)CC(=O)N(C(=O)CCCCCCCCC(=O)N3C(=O)CC(=O)N(c4ccc(OC)cc4)C3=S)C2=S)cc1
inactive: SN12C > 100 µM | KM12 79.6 µM | DU-145 > 100 µM | A498 > 100 µM | A549 > 100 µM | HCT-116 > 100 µM | U-251 > 100 µM | RPMI-8226 44 µM | HCC 2998 > 100 µM | K562 44.3 µM | ACHN > 100 µM | MDA-N 57.4 µM | 786-0 > 100 µM | UO-31 79.6 µM | OVCAR-4 > 100 µM | MOLT-4 54.3 µM | MDA-MB-435 61.1 µM | CCRF-CEM 31.6 µM | OVCAR-3 > 100 µM | COLO 205 > 100 µM | SK-MEL-28 > 100 µM | SR 39.4 µM | HOP-92 > 100 µM | NCI-H226 > 100 µM | NCI-H23 > 100 µM | NCI/ADR-RES > 100 µM | TK-10 > 100 µM | MDA-MB-231 > 100 µM | NCI-H460 > 100 µM | OVCAR-5 > 100 µM | LOX IMVI 78.3 µM | UACC-62 > 100 µM | SF-295 > 100 µM | NCI-H522 65.2 µM | HT-29 > 100 µM | SK-MEL-2 > 100 µM | RXF 393 > 100 µM | HOP-62 > 100 µM | PC-3 > 100 µM | T47D 97.9 µM | MCF7 > 100 µM | M14 > 100 µM | EKVX > 100 µM | Malme-3M > 100 µM | SF-268 > 100 µM | SNB-19 > 100 µM | SK-OV-3 > 100 µM | SNB-75 > 100 µM | SK-MEL-5 57.9 µM | SF-539 > 100 µM | UACC-257 > 100 µM | CAKI-1 > 100 µM | Hs-578T > 100 µM | BT-549 33.9 µM | HL-60 95.9 µM | SW-620 > 100 µM | OVCAR-8 > 100 µM
> 100 µM: HCT-15
